The values that follow come from patent US9708334B2, “Substituted 2,4,5,6-tetrahydropyrrolo[3,4-c]pyrazole and 4,5,6,7-tetrahydro-2H-pyrazolo[4,3-c]pyridine compounds as GlyT1 inhibitors” (DART NEUROSCIENCE (CAYMAN) LTD., priority 2014, dated 2017).

Some results are limits rather than exact numbers.

This test has as its target T1, GlyT1 (Homo sapiens, UniProt P48067).
T1 construct: expressed in transfected cells
T1 sequence (P48067 1-706): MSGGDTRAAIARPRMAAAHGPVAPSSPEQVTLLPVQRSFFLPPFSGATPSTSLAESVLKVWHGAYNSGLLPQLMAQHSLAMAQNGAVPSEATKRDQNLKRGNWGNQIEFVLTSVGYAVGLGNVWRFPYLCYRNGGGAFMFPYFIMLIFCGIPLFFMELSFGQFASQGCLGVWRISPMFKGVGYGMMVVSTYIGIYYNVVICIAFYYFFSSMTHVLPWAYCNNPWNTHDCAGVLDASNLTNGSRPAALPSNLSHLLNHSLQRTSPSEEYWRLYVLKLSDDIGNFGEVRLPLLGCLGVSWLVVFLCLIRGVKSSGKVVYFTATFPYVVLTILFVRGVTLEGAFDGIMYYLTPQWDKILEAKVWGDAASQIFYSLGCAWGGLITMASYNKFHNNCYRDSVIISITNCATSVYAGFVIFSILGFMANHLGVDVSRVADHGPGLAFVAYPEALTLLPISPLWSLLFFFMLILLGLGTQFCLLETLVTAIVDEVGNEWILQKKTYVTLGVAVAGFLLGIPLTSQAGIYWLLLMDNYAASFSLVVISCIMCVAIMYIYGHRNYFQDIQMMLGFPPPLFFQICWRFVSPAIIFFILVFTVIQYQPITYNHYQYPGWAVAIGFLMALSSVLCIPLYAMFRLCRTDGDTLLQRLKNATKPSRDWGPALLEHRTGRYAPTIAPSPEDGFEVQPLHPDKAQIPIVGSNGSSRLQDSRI
As to the kind of experiment: Glycine Transporter 1 (GlyT1) uptake assay, scintillation proximity assay of [14C]-glycine uptake. It counts as cell-based. The following applies: SPA, four parameter logistic fit, read-out: GlyT1 (pIC50) (converted). In a few lines: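 IC50 values derive from four-parameter logistic curves fitted to dose-response data. Uptake of [14C]-glycine measured in scintillation proximity format.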
(SPA uses beads or plates that emit light when radiolabelled molecules are held near them.)
As to `C[C@H](Oc1ccc(C#N)cc1C(=O)N1Cc2cn(Cc3ccccc3)nc2C1)C(F)(F)F` [Example 382], the IC50 is 100 to 1000 nM.
The value for `CC(C)Oc1ccc(C#N)cc1C(=O)N1Cc2cn(C3CCOCC3)nc2C1` [Example 408, 3-[2-(Oxan-4-yl)-2H 4H 5H 6H-pyrrolo[3,4-c]pyrazole-5-carbonyl]-4-(propan-2-yloxy)benzonitrile] was 100 to 1000 nM; that for `COc1c(C#N)ccc(C2(F)CCC(F)(F)CC2)c1C(=O)N1Cc2cn(-c3ccc(F)cn3)nc2C1` [Example 15, 3-[2-(5-Fluoropyridin-2-yl)-2H 4H 5H 6H-pyrrolo[3,4-c]pyrazole-5-carbonyl]-2-methoxy-4-(1 4 4-trifluorocyclohexyl)benzonitrile] was 100 to 1000 nM.
The value for `Cc1cccc(-n2cc3c(n2)CN(C(=O)c2cc(S(C)(=O)=O)ccc2O[C@@H](C)C(F)(F)F)C3)c1F` [Example 42, 2-(2-Fluoro-3-methylphenyl)-5-(5-methanesulfonyl-2-{[(2S)-1 1 1-trifluoropropan-2-yl]oxy}benzoyl)-2H 4H 5H 6H-pyrrolo[3,4-e]pyrazole] was < 100 nM.
In the case of `COc1c(C#N)ccc(C2(F)CCC2)c1C(=O)N1Cc2cn(-c3ccc(F)cc3)nc2C1` [Example 26, 4-(1-Fluorocyclobutyl)-3-[2-(4-fluorophenyl)-2H 4H 5H 6H-pyrrolo[3,4-c]pyrazole-5-carbonyl]-2-methoxybenzonitrile] it was 100 to 1000 nM; in that of `CC(C)Oc1ccc(S(C)(=O)=O)cc1C(=O)N1Cc2cn(-c3ccccc3F)nc2C1` [Example 60, 2-(2-Fluorophenyl)-5-[5-methanesulfonyl-2-(propan-2-yloxy)benzoyl]-2H 4H 5H 6H-pyrrolo[3,4-c]pyrazole], < 100 nM.
Take `CC(C)Oc1ccc(S(=O)(=O)C(C)C)cc1C(=O)N1Cc2cn(-c3cccc(C(F)(F)F)c3F)nc2C1` [Example 93, 2-[2-Fluoro-3-(trifluoromethyl)phenyl]-5-[2-(propan-2-yloxy)-5-(propane-2-sulfonyl)benzoyl]-2H 4H 5H 6H-pyrrolo[3,4-c]pyrazole]: the IC50 was 1000 to 10000 nM.
In the case of `CC(Oc1ccc(C(=O)N2CCC2)cc1C(=O)N1CCc2nn(-c3ccc(F)cc3)cc2C1)C(F)(F)F` (stereo not drawn) [Example 481, 1-{3-[2-(4-Fluorophenyl)-2H 4H 5H 6H 7H-pyrazolo[4,3-c]pyridine-5-carbonyl]-4-[(1 1 1-trifluoropropan-2-yl)oxy]benzoyl}azetidine] it was > 10000 nM.
The value for `CC(C)Oc1ccc(C#N)cc1C(=O)N1Cc2cn(-c3ccn4ccnc4c3)nc2C1` [Example 424, 3-(2-{Imidazo[1 2-a]pyridin-7-yl}-2H 4H 5H 6H-pyrrolo[3,4-c]pyrazole-5-carbonyl)-4-(propan-2-yloxy)benzonitrile] was 1000 to 10000 nM; that for `C[C@H](Oc1ccc(C#N)cc1C(=O)N1Cc2cn(-c3ccnnc3)nc2C1)C(F)(F)F` [Example 423, 3-[2-(Pyridazin-4-yl)-2H 4H 5H 6H-pyrrolo[3,4-c]pyrazole-5-carbonyl]-4-{[(2S)-1 1 1-trifluoropropan-2-yl]oxy}benzonitrile] was < 100 nM; that for `CC(C)S(=O)(=O)c1ccc(O[C@@H](C)C(F)(F)F)c(C(=O)N2Cc3cn(-c4ccc(F)cc4)nc3C2)c1` [Example 91, 2-(4-Fluorophenyl)-5-[5-(propane-2-sulfonyl)-2-{[(2S)-1 1 1-trifluoropropan-2-yl]oxy}benzoyl]-2H 4H 5H 6H-pyrrolo[3,4-c]pyrazole] was 100 to 1000 nM.
The value for `CC(C)(C)COc1ccc(S(C)(=O)=O)cc1C(=O)N1Cc2cn(-c3cc(Cl)ccc3F)nc2C1` [Example 65, 2-(5-Chloro-2-fluorophenyl)-5-[2-(2 2-dimethylpropoxy)-5-methanesulfonylbenzoyl]-2H 4H 5H 6H-pyrrolo[3,4-c]pyrazole] was < 100 nM; that for `CC(Oc1ccc(S(C)(=O)=O)cc1C(=O)N1CCc2c(cnn2C)C1)C(F)(F)F` (stereo not drawn) [Example 161, 5-{5-Methanesulfonyl-2-[(1 1 1-trifluoropropan-2-yl)oxy]benzoyl}-1-methyl-1H 4H 5H 6H 7H-pyrazolo[4,3-c]pyridine] was 1000 to 10000 nM; that for `C[C@H](Oc1ccc(C#N)c(Cl)c1C(=O)N1Cc2cn(-c3cccc(F)c3)nc2C1)C(F)(F)F` [Example 267, 2-Chloro-3-[2-(3-fluorophenyl)-2H 4H 5H 6H-pyrrolo[3,4-c]pyrazole-5-carbonyl]-4-{[(2S)-1 1 1-trifluoropropan-2-yl]oxy}benzonitrile] was < 100 nM.
For `COc1c(C#N)ccc(OCC(F)(F)F)c1C(=O)N1Cc2cn(-c3cncc(F)c3)nc2C1` [Example 311, 3-[2-(5-Fluoropyridin-3-yl)-2H 4H 5H 6H-pyrrolo[3,4-c]pyrazole-5-carbonyl]-2-methoxy-4-(2 2 2-trifluoroethoxy)benzonitrile], the IC50 is < 100 nM.
In the case of `CS(=O)(=O)c1ccc(N2CCC(F)(F)CC2)c(C(=O)N2Cc3cn(-c4cc(F)ccc4F)nc3C2)c1` [Example 123, 1-{2-[2-(2 5-Difluorophenyl)-2H 4H 5H 6H-pyrrolo[3,4-c]pyrazole-5-carbonyl]-4-methanesulfonylphenyl}-4 4-difluoropiperidine] it was < 100 nM.
The value for `COc1c(C#N)ccc(O[C@@H](C)C(F)(F)F)c1C(=O)N1Cc2cn(-c3ccc(C#N)cc3)nc2C1` [Example 283, 3-[2-(4-Cyanophenyl)-2H 4H 5H 6H-pyrrolo[3,4-c]pyrazole-5-carbonyl]-2-methoxy-4-{[(2S)-1 1 1-trifluoropropan-2-yl]oxy}benzonitrile] was < 100 nM; that for `CC(C)Oc1ccc(C#N)cc1C(=O)N1Cc2cnn(CC(F)(F)F)c2C1` [Example 444, 4-(Propan-2-yloxy)-3-[1-(2 2 2-trifluoroethyl)-1H 4H 5H 6H-pyrrolo[3,4-c]pyrazole-5-carbonyl]benzonitrile] was 100 to 1000 nM; that for `COc1c(C#N)ccc(O[C@@H](C)C(F)(F)F)c1C(=O)N1Cc2cn(-c3ccn(C)n3)nc2C1` [Example 291, 2-Methoxy-3-[2-(1-methyl-1H-pyrazol-3-yl)-2H 4H 5H 6H-pyrrolo[3,4-c]pyrazole-5-carbonyl]-4-{[(2S)-1 1 1-trifluoropropan-2-yl]oxy}benzonitrile] was < 100 nM.
The value for `CC(C)COc1ccc(S(C)(=O)=O)cc1C(=O)N1Cc2cn(-c3cc(Cl)ccc3F)nc2C1` [Example 68, 2-(5-Chloro-2-fluorophenyl)-5-[5-methanesulfonyl-2-(2-methylpropoxy)benzoyl]-2H 4H 5H 6H-pyrrolo[3,4-c]pyrazole] was < 100 nM; that for `CC(Oc1ccc(C#N)c(Cl)c1C(=O)N1CCc2nn(-c3ccc(F)cc3)cc2C1)C(F)(F)F` (stereo not drawn) [Example 177, 2-Chloro-3-[2-(4-fluorophenyl)-2H 4H 5H 6H 7H-pyrazolo[4,3-c]pyridine-5-carbonyl]-4-[(1 1 1-trifluoropropan-2-yl)oxy]benzonitrile] was 100 to 1000 nM.
Take `N#Cc1ccc(OCC(F)(F)F)c(C(=O)N2CCc3nn(-c4ccc(F)cc4)cc3C2)c1Cl` [Example 223, 2-Chloro-3-[2-(4-fluorophenyl)-2H 4H 5H 6H 7H-pyrazolo[4,3-c]pyridine-5-carbonyl]-4-(2 2 2-trifluoroethoxy)benzonitrile]: the IC50 was 1000 to 10000 nM.
The value for `C[C@H](Oc1ccc(C#N)cc1C(=O)N1Cc2cn(C3CCCC3)nc2C1)C(F)(F)F` [Example 389, 3-{2-Cyclopentyl-2H 4H 5H 6H-pyrrolo[3,4-c]pyrazole-5-carbonyl}-4-{[(2S)-1 1 1-trifluoropropan-2-yl]oxy}benzonitrile] was 100 to 1000 nM; that for `CS(=O)(=O)c1ccc(-c2cccc(F)c2)c(C(=O)N2Cc3cn(C4CCC(F)(F)CC4)nc3C2)c1` [Example 469, 2-(4 4-Difluorocyclohexyl)-5-[2-(3-fluorophenyl)-5-methanesulfonylbenzoyl]-2H 4H 5H 6H-pyrrolo[3,4-c]pyrazole] was < 100 nM.
On to `N#Cc1ccc(OCC2CC2)c(C(=O)N2CCc3nn(-c4ccccc4)cc3C2)c1Cl` [Example 504, 2-Chloro-4-(cyclopropylmethoxy)-3-{2-phenyl-2H 4H 5H 6H 7H-pyrazolo[4,3-c]pyridine-5-carbonyl}benzonitrile], for which the IC50 is 1000 to 10000 nM.
Turning to `C[C@H](Oc1ccc(C#N)cc1C(=O)N1Cc2cn(-c3ccc(C#N)nc3)nc2C1)C(F)(F)F` [Example 465, 5-[5-(5-Cyano-2-{[(2S)-1 1 1-trifluoropropan-2-yl]oxy}benzoyl)-2H 4H 5H 6H-pyrrolo[3,4-c]pyrazol-2-yl]pyridine-2-carbonitrile], the IC50 is 100 to 1000 nM.
In the case of `C[C@H](Oc1ccc(C#N)cc1C(=O)N1Cc2cnn(-c3ccnnc3)c2C1)C(F)(F)F` [Example 421, 3-[1-(Pyridazin-4-yl)-1H 4H 5H 6H-pyrrolo[3,4-c]pyrazole-5-carbonyl]-4-{[(2S)-1 1 1-trifluoropropan-2-yl]oxy}benzonitrile] it was 100 to 1000 nM.
